The source of these data is patent publication US9999659B2, “Treatments using a peptide and/or vaccine” (AFFIRIS AG, priority 2012, dated 2018).

No end group written: not given here.

Assay [1] relates to Balb/c mice. As to the kind of experiment: Total cholesterol assay in immunized mice. The format is in vivo, mouse. As for the experimental part:
The peptides were conjugated via the heterobifunctional linker GMBS (4-Maleimidobutyric acid N-hydroxysuccinimide ester) to KLH (Keyhole Limpet Hemocyanin).
5 Balb/c mice were subcutaneously immunized. Mice had access to food and water ad libitum and were kept under a 12 h light/dark cycle. The age of mice at the beginning of experiments was 8 to 10 weeks.
Mice were injected four times in 2 week intervals with 15 μg of net peptide coupled to KLH and adsorbed to Alhydrogel as adjuvant in a volume of 1 ml in total.
Blood was taken approximately 2 weeks after the final injection.
Total cholesterol was measured with the LabAssay™ Cholesterol Kit (Wako).
For this purpose mice have been immunized with HPLC purified peptides coupled to KLH and formulated with an adjuvant (Alum) as vaccines (Sequence-KLH/Alum). In the first experiment, a direct comparison between the original PCSK9 sequence and the novel sequence […] has been performed. Here, mice have been immunized with irrelevant peptide vaccine (irrelevant peptide-KLH/Alum) as a negative control group, original PCSK9 sequence vaccine ([…]-KLH/Alum) and the novel sequence vaccine ([…]-KLH/Alum). The latter group ([…]-KLH/Alum) has been used not only to compare its functionality of the induced antibodies to the functionality of the antibodies generated using the original PCSK9 sequence vaccine ([…]-KLH/Alum), but also as a bridging group between different experiments.
Subsequently, a second experiment has been performed wherein mice have been immunized with irrelevant peptide as a negative control group and all the three novel sequences […], […] and […], all coupled to KLH and formulated as vaccines. As it has been already mentioned above, the mice immunized with the novel sequence ([…]-KLH/Alum) have been used as a bridging group between the experiments. In fact, the bridging group injected with the novel sequence ([…]-KLH/Alum) is behaving in a similar way in both experiments (FIGS. 5A, 5B, 6A and 6B) and most importantly, all three groups immunized with vaccines containing one of the sequences […], […] or […] behave in a very similar way in terms of reduction of plasma total cholesterol levels (FIGS. 6A and 6B).

Assay [2] relates to polyclonal antibodies specific for human PCSK9 aa 153-162 or aa 153-165. The experiment in a line: Binding ELISA: mimotopes coated on plates, detected by mouse sera raised against the original PCSK9 sequence. The note with it: mimotope coated at 1 μmol/mL; titer = serum dilution where 50% of ODmax is reached. An excerpt: FIGS. 1A and 1B show detection of PCSK9 mimotopes sequences by mouse sera containing polyclonal antibodies specific for human PCSK9 aa 153-162 or aa 153-165
The graphs display median titers from all mimotopes compared to the irrelevant negative control. As a positive control the original human PCSK9 sequence is included: aa 153-162 or aa 153-165. Mimotopes with values over 1:50.000 are considered as good candidates.
Mimotopes were coated on ELISA plates at a concentration of 1 μmol/mL. After blocking unspecific binding (1% BSA in PBS) appropriate dilutions of sera from mice injected with the original human PCSK9 sequence aa 153-162 or aa 153-165 (SEQ ID No. 3) were added and incubated for approximately 1 hour. Subsequently, detection with anti-mouse IgG antibodies was performed. ABTS was used as substrate. OD measurements were performed at 405 nm and titers were defined as the dilution of the serum where 50% of the ODmax is reached.
(An ELISA detects its analyte on a solid surface through an enzyme-linked reagent.)

Assay [3] concerns polyclonal antibodies in mouse sera raised against original PCSK9 sequence (aa 153-162 or aa 153-165). As to the kind of experiment: Competition ELISA: mimotope competes with the original PCSK9 sequence for binding of polyclonal antibodies in mouse sera. The note with it: 20 μg peptide incubated with sera; irrelevant peptide = 0% competition. The text has this:
FIGS. 2A and 2B show the ability of PCSK9 mimotopes to compete with the original PCSK9 sequence (aa 153-162 or aa 153-165) for binding polyclonal antibodies in mouse sera raised specifically against the latter.
All mimotopes are compared to the negative group (0% competition by an irrelevant peptide). As a positive control for each competition ELISA the original PCSK9 sequences were used (aa 153-162 or aa 153-165).
The graphs display the ability (in percent) of the mimotopes to compete with the original PCSK9 sequence (aa 153-162 or aa 153-165) for binding polyclonal antibodies raised against the latter.
20 μg of each indicated peptide was incubated with sera from mice injected with original PCSK9 sequence (aa 153-162 or aa 153-165: SEQ ID No. 2). Sera were then incubated on ELISA plates coated with the original PCSK9 sequence (aa 153-162 or aa 153-165: SEQ ID No. 2). Detection was performed with anti-mouse IgG antibodies, ABTS was used as a chromogenic substrate and optical density (OD) was measured at 405 nm.
Mimotopes diminishing >20% subsequent binding of the polyclonal antibodies from the sera to the original human PCSK9 epitope (aa 153-162 or 153-165: SEQ ID No. 3) coated on the ELISA plates were considered as competing mimotopes and as good candidates.

With “SVPWNLERIQ: vaccine containing novel sequence SVPWNLERIQ (SEQ ID No. 60), coupled to KLH and formulated as vaccine (also: coupled to KLH)”, in assay [1] (result in words), the “total cholesterol compared to the group injected with vaccine containing the original PCSK9 sequence SIPWNLERIT” value is “significantly reduce”.
Still for that read-out and setting: the entry for “VIPWNLERIL: vaccine containing novel sequence VIPWNLERIL (SEQ ID No. 55), coupled to KLH and formulated as vaccine (also: coupled to KLH)” is “significantly reduce”.
In the case of “SIPWSLERIT-KLH/Alum: novel sequence vaccine: peptide SIPWSLERIT (SEQ ID No. 21) coupled to KLH and formulated with adjuvant Alum (also: coupled to KLH, site not given here)”, in assay [1] (FIGS. 5A and 5B, result in words), the “levels of total cholesterol in comparison to the negative control group” value was “strongly reduce”. Also, in assay [1] (first experiment, FIG. 5B, mice immunized with Sequence-KLH/Alum), the “% decrease of TC compared to the irrelevant (negative) control group” value was 35-40%. For the same substance, the “total cholesterol compared to the group injected with vaccine containing the original PCSK9 sequence SIPWNLERIT” value in assay [1] (result in words) is given as “significant reduction”; in assay [1] (result in words, listed as SIPWSLERIT) it was “significantly reduce”.
On to “16 (SIPANLERIT; Artificial Sequence, Mimotope) [compound 16]”, for which the “Median Titer Binding ELISA (ODmax/2)” value in assay [2] was 22,000. Besides, the “% Competition compared to the related control group” value (from here on “% Competition”) in assay [3] amounted to 8%.
Turning to “50 (SIPWNLERITPPK; Artificial Sequence, Mimotope) [compound 50]”, the “Median Titer Binding ELISA (ODmax/2)” value in assay [2] was 158,000. Also, in assay [3], the “% Competition” value came out at 66%.
Regarding “23 (SIPWQLERITPPR; Artificial Sequence, Mimotope) [compound 23]”, in assay [2], the “Median Titer Binding ELISA (ODmax/2)” value is 224,000. Also, the “% Competition” value in assay [3] came to 79%.
On the same counts, the results for “57 (SVPWNLERLT; Artificial Sequence, Mimotope) [compound 57]” are 154,000 and 57%.
Regarding “30 (SIPWNVERITPPR; Artificial Sequence, Mimotope) [compound 30]”, the “Median Titer Binding ELISA (ODmax/2)” value in assay [2] was 197,000. In addition, in assay [3], the “% Competition” value is 78%.
As for “55 (VIPWNLERIL; Artificial Sequence, Mimotope) [compound 55]”, the “Median Titer Binding ELISA (ODmax/2)” value in assay [2] is recorded as 173,000. Also, the “% Competition” value in assay [3] was 49%.
With “28 (SIPWNDERIT; Artificial Sequence, Mimotope) [compound 28]”, the “Median Titer Binding ELISA (ODmax/2)” value in assay [2] is 131,000. For the same substance, the “% Competition” value in assay [3] is given as 71%.
For the substance “43 (SIPWNLERITAPR; Artificial Sequence, Mimotope) [compound 43]”, the “Median Titer Binding ELISA (ODmax/2)” value in assay [2] is 226,000. For the same substance, the “% Competition” value in assay [3] is given as 70%.
On to “46 (SIPWNLERITPVR; Artificial Sequence, Mimotope) [compound 46]”, for which, in assay [2], the “Median Titer Binding ELISA (ODmax/2)” value is 265,000. Further, the “% Competition” value in assay [3] was 75%.
In the case of “10 (SAPWNLERIT; Artificial Sequence, Mimotope) [compound 10]”, the “Median Titer Binding ELISA (ODmax/2)” value in assay [2] is listed as 131,000. For the same substance, the “% Competition” value in assay [3] is 76%.
On the same counts, the results for “26 (SIPWNGERIT; Artificial Sequence, Mimotope) [compound 26]” are 56,000 and 52%.
For the substance “56 (VIPWNLERIQ; Artificial Sequence, Mimotope) [compound 56]”, in assay [2], the “Median Titer Binding ELISA (ODmax/2)” value is recorded as 166,000. Besides, the “% Competition” value in assay [3] is 47%.
For “15 (SIPFNLERIT; Artificial Sequence, Mimotope) [compound 15]” the same measures were 42,000 and 15%.
In the case of “29 (SIPWNFERITPPR; Artificial Sequence, Mimotope) [compound 29]”, the “Median Titer Binding ELISA (ODmax/2)” value in assay [2] is reported as 186,000. Besides, in assay [3], the “% Competition” value is listed as 79%.
On the same counts, the results for “38 (SIPWNLERAT; Artificial Sequence, Mimotope) [compound 38]” are 149,000 and 77%.
On to “21 (SIPWSLERIT; Artificial Sequence, Mimotope) [compound 21]”, for which, in assay [2], the “Median Titer Binding ELISA (ODmax/2)” value is reported as 147,000. Moreover, the “% Competition” value in assay [3] was determined as 73%.
